From patent US10233186B2, “Inhibitors of activin receptor-like kinase” (BLUEPRINT MEDICINES CORPORATION, priority 2016, dated 2019)
pIC50: −log10 of the molar value.

What was measured:
[1] = target: T1, ALK2 R206H (GST-tagged mutant ALK2) (Homo sapiens, UniProt Q04771, R206H); assay: ALK binding assay (LANTHASCREEN TR-FRET competitive binding, displacement of Kinase Tracer 178); conditions: ALK2 R206H, LANTHASCREEN TR-FRET competitive binding; read-out: Binding Assay (IC50)
T1 construct: purchased Carna Bioscience or ThermoFisher 09-148 or PV6232
T1 sequence (Q04771 21-509 R206H): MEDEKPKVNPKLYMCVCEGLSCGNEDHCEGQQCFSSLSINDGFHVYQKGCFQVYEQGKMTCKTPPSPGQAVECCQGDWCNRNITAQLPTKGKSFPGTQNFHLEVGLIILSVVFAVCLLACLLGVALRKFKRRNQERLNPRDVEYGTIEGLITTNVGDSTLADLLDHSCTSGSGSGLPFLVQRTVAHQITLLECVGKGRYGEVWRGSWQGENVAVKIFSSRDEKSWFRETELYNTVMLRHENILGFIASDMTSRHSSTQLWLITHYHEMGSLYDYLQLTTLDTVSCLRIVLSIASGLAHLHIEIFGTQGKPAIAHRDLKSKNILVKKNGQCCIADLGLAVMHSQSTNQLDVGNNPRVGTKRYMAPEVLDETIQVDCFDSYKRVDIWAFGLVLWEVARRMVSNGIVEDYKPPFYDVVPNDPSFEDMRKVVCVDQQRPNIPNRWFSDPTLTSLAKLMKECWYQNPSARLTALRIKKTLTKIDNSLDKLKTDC

[2] = target: T2, human ALK2 R206H (Homo sapiens, UniProt Q04771, R206H); assay: Cell-based ALK2-R206H cell activity assay (Smad1-Ser463/Ser465 phosphorylation by AlphaLISA in HEK293-ALK2-R206H cells); conditions: read-out: Cell Line (Cell Assay IC50)
T2 construct: expressed in transfected cells; host or cells: HEK293 (ATCC CRL1573), lentivirus transduction, blasticidin selection
T2 sequence (Q04771 21-509 R206H): T1 sequence (Q04771 21-509 R206H)
In short: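 Stable HEK293 cells expressing C-terminally FLAG-tagged human ALK2 R206H (lentiviral, blasticidin-selected) were treated with compounds in 10-point, 3-fold dilutions from 10 μM or 1 μM top, in duplicate. Smad1 Ser463/Ser465 phosphorylation was read by AlphaLISA.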

| Compound | pIC50 [1] | pIC50 [2] |
| --- | --- | --- |
| COC1(c2ccc(-c3cc4c(N5CCN(C(=O)C6CC6)CC5)ccnn4c3)cc2)CCN([C@H](C)COC(F)F)CC1 [Compound 884] | > 8.00 | > 7.00 |
| COC1(c2ccc(-c3cc4c(N5CCN(C(=O)C6CC6)CC5)ccnn4c3)nc2)CCN([C@H](C)COC(F)F)CC1 [Compound 885] | > 8.00 | > 7.00 |
| COC1(c2ccc(-c3cc4c(N5CCN(C(=O)C6CC6)CC5)ccnn4c3)nc2)CCN([C@@H](C)COC(F)F)CC1 [Compound 886] | > 8.00 | > 7.00 |
| CC(C)NC(=O)N1CCN(c2ccnn3cc(-c4ccc(C5(COC(F)F)CCN(C(C)C)CC5)cc4)cc23)CC1 [Compound 887] | > 8.00 | > 7.00 |
| CC(C)N1CC[C@H](OC(F)F)[C@@H](c2ccc(-c3cc4c(N5CCN(C(=O)OC6COC6)CC5)ccnn4c3)cc2)C1 [Compound 888] | > 8.00 | > 7.00 |
| CC(C)N1CC[C@@H](OC(F)F)[C@H](c2ccc(-c3cc4c(N5CCN(C(=O)OC6COC6)CC5)ccnn4c3)cc2)C1 [Compound 889] | > 8.00 | > 7.00 |
| CCOC1(c2ccc(-c3cc4c(N5CCN(C(=O)[C@H]6C[C@H](C#N)C6)CC5)ccnn4c3)nc2)CCN(C2COC2)CC1 [Compound 890] | > 8.00 | > 7.00 |
| CC(C)N1CCC(COC(F)F)(c2ccc(-c3cc4c(N5CCN(C(=O)OC6COC6)CC5)ccnn4c3)cc2)CC1 [Compound 891] | > 8.00 | > 7.00 |
| COC1(c2ccc(-c3cc4c(N5CCN(C(=O)NC(C)C)CC5)ccnn4c3)cc2)CCN([C@@H](C)COC(F)F)CC1 [Compound 892] | > 8.00 | > 7.00 |
| COC1(c2ccc(-c3cc4c(N5CCN(C(=O)NC(C)C)CC5)ccnn4c3)cc2)CCN([C@H](C)COC(F)F)CC1 [Compound 893] | > 8.00 | > 7.00 |
| COC1(c2ccc(-c3cc4c(N5CCN(C(=O)NC(C)C)CC5)ccnn4c3)nc2)CCN([C@@H](C)COC(F)F)CC1 [Compound 894] | > 8.00 | > 7.00 |
| CCOC1(c2ccc(-c3cc4c(N5CCN(C(=O)OC6CN(C(C)=O)C6)CC5)ccnn4c3)nc2)CCN(C(C)C)CC1 [Compound 895] | > 8.00 | 6.30 to 7.00 |
| COC1(c2ccc(-c3cc4c(N5CCN(C(=O)OC6COC6)CC5)ccnn4c3)cc2)CCN([C@@H](C)COC(F)F)CC1 [Compound 896] | > 8.00 | > 7.00 |
| COC1(c2ccc(-c3cc4c(N5CCN(C(=O)OC6COC6)CC5)ccnn4c3)cc2)CCN([C@H](C)COC(F)F)CC1 [Compound 897] | > 8.00 | > 7.00 |
| COC1(c2ccc(-c3cc4c(N5CCN(C(=O)OC6COC6)CC5)ccnn4c3)nc2)CCN([C@H](C)COC(F)F)CC1 [Compound 898] | > 8.00 | > 7.00 |
| COC1(c2ccc(-c3cc4c(N5CCN(C(=O)OC6COC6)CC5)ccnn4c3)nc2)CCN([C@@H](C)COC(F)F)CC1 [Compound 899] | > 8.00 | > 7.00 |
